Where two headings read alike, the source gives them in different places.

This assay addresses T1, Human BCL-XL protein (N-terminal HiBiT tagged BCL-XL in HT1080 cells) (Homo sapiens, UniProt Q07817).
T1 construct: expressed in transfected cells; host or cells: HT-1080 (ATCC CCL-121), stably transduced with lentivirus pLV-UBC-N-HiBiT-BCL-XL-PGK-puro and selected with puromycin
The experiment in a line: HiBiT based degradation assay. Particulars: HT1080 cells expressing HiBiT-BCL-XL; for Ymin (6 h) / Ymin (24 h): BCL-XL degradation normalized with DMSO control; for DC50: BCL-XL degradation. Format: cell-based. An outline of the steps: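 HT1080 cells stably transduced by lentivirus with N-terminally HiBiT-tagged human BCL-XL and kept under 1 μg/mL puromycin selection were seeded at three thousand cells per well in 40 μL RPMI 1640 into 384-well plates pre-spotted with compounds across a concentration range. Luminescence was read on a PHERAstar FSX, normalized to DMSO, and fitted with a four-parameter logistic model.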

T1 sequence (Q07817 whole entry): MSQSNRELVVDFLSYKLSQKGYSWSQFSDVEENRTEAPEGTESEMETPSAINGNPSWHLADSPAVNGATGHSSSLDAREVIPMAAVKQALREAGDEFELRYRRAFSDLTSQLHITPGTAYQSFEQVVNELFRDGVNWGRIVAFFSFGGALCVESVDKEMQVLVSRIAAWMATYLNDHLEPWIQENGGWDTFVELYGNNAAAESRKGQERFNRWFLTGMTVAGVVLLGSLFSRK

`Cc1c(OCCCN2C[C@@H](C)N(CC(=O)Nc3ccc4c(C5CCC(=O)NC5=O)nn(C)c4c3)[C@@H](C)C2)cccc1-c1ccc(N2CCc3cccc(C(=O)Nc4nc5ccccc5s4)c3C2)nc1C(=O)O` (stereo partly drawn) [Compound 116a, 6-[8-(1,3-benzothiazol-2-ylcarbamoyl)-3,4-dihydro-1H-isoquinolin-2-yl]-3-[3-[3-[(3S,5R)-4-[2-[[3-(2,6-dioxo-3-piperidyl)-1-methyl-indazol-6-yl]amino]-2-oxo-ethyl]-3,5-dimethyl-piperazin-1-yl]propoxy]-2-methyl-phenyl]pyridine-2-carboxylic acid]: the “Ymin (6 h)” value (6 h) was “A (Ymin < 50%)”. Further, the “Ymin (24 h)” value (24 h) is given as “A (Ymin < 50%)”. For the same molecule, the DC50 reads like this: (6 h, read-out: EC50 (6 h)) under 100 nM; (24 h, read-out: EC50 (24 h)) under 100 nM.
As to `Cc1c(O[C@H]2CC[C@H](CCCCN3CCC(c4cccc5c(C6CCC(=O)NC6=O)nn(C)c45)CC3)CC2)cccc1-c1ccc(N2CCc3cccc(C(=O)Nc4nc5ccccc5s4)c3C2)nc1C(=O)O` (some centres unmarked) [Compound 298a, 6-(8-(benzo[d]thiazol-2-ylcarbamoyl)-3,4-dihydroisoquinolin-2(1H)-yl)-3-(3-(((1s,4r)-4-(4-(4-(3-(2,6-dioxopiperidin-3-yl)-1-methyl-1H-indazol-7-yl)piperidin-1-yl)butyl)cyclohexyl)oxy)-2-methylphenyl)picolinic acid], the “Ymin (24 h)” value (24 h) is “A (Ymin < 50%)”. Moreover, under “24 h, read-out: EC50 (24 h)”, the DC50 is under 100 nM.
Taken in the same sequence, the figures for `Cc1c(O[C@H]2CC[C@H](CCCCN3CCC[C@@H](c4ccc5c(C6CCC(=O)NC6=O)nn(C)c5c4)C3)CC2)cccc1-c1ccc(N2CCc3cccc(C(=O)Nc4nc5ccccc5s4)c3C2)nc1C(=O)O` (single isomer, unassigned) [Compound 352b] were “A (Ymin < 50%)” and under 100 nM.
For `Cc1c(O[C@H]2CC[C@H](CCCN3CCN(c4ccc5c(C6CCC(=O)NC6=O)nn(C)c5c4)[C@@H](C(F)(F)F)C3)CC2)cccc1-c1ccc(N2CCc3cccc(C(=O)Nc4nc5ccccc5s4)c3C2)nc1C(=O)O` (stereo partly drawn) [Compound 301a, 6-(8-(benzo[d]thiazol-2-ylcarbamoyl)-3,4-dihydroisoquinolin-2(1H)-yl)-3-(3-(((1s,4r)-4-(3-((3R)-4-(3-(2,6-dioxopiperidin-3-yl)-1-methyl-1H-indazol-6-yl)-3-(trifluoromethyl)piperazin-1-yl)propyl)cyclohexyl)oxy)-2-methylphenyl)picolinic acid] the same measures were “A (Ymin < 50%)” and under 100 nM.
Taken in the same sequence, the figures for `Cc1c(O[C@H]2CC[C@H](CCC[C@@H](C)N3CCN(c4ccc5c(C6CCC(=O)NC6=O)nn(C)c5c4)CC3)CC2)cccc1-c1ccc(N2CCc3cccc(C(=O)Nc4nc5ccccc5s4)c3C2)nc1C(=O)O` (single isomer, unassigned) [Compound 333b] were “A (Ymin < 50%)” and under 100 nM.
For the molecule `Cc1c(OCCCC2CCN(CCCOc3ccc4c(C5CCC(=O)NC5=O)nn(C)c4c3)CC2)cccc1-c1ccc(N2CCc3cccc(C(=O)Nc4nc5ccccc5s4)c3C2)nc1C(=O)O` (centres unmarked) [Compound 172, 6-(8-(benzo[d]thiazol-2-ylcarbamoyl)-3,4-dihydroisoquinolin-2(1H)-yl)-3-(3-(3-(1-(3-((3-(2,6-dioxopiperidin-3-yl)-1-methyl-1H-indazol-6-yl)oxy)propyl)piperidin-4-yl)propoxy)-2-methylphenyl)picolinic acid], the “Ymin (6 h)” value (6 h) was “C (Ymin ≥ 70%)”. Also, for the setting “24 h”, the “Ymin (24 h)” value is listed as “A (Ymin < 50%)”. The DC50 is, setting by setting: (6 h, read-out: EC50 (6 h)) 100 to 1000 nM; (24 h, read-out: EC50 (24 h)) under 100 nM.
Regarding `Cc1c(-c2ccc(N3CCc4cccc(C(=O)Nc5nc6ccccc6s5)c4C3)nc2C(=O)NCCCCCC(=O)Nc2ccc3c(C4CCC(=O)NC4=O)nn(C)c3c2)cnn1CC12CC3CC(CC(C3)C1)C2` (centres unmarked) [Compound 111, 2-(5-(1-(((3r,5r,7r)-adamantan-1-yl)methyl)-5-methyl-1H-pyrazol-4-yl)-6-((6-((3-(2,6-dioxopiperidin-3-yl)-1-methyl-1H-indazol-6-yl)amino)-6-oxohexyl)carbamoyl)pyridin-2-yl)-N-(benzo[d]thiazol-2-yl)-1,2,3,4-tetrahydroisoquinoline-8-carboxamide], the “Ymin (6 h)” value (6 h) is on record as “B (50% ≤ Ymin < 70%)”. In addition, for the setting “6 h, read-out: EC50 (6 h)”, the DC50 was under 100 nM.
Consider `Cc1c(O[C@H]2CC[C@H](CCC(=O)Nc3cccc4c(C5CCC(=O)NC5=O)nn(C)c34)CC2)cccc1-c1ccc(N2CCc3cccc(C(=O)Nc4nc5ccccc5s4)c3C2)nc1C(=O)O` (some centres unmarked) [Compound 124a, 6-(8-(benzo[d]thiazol-2-ylcarbamoyl)-3,4-dihydroisoquinolin-2(1H)-yl)-3-(3-(((1r,4r)-4-(3-((3-(2,6-dioxopiperidin-3-yl)-1-methyl-1H-indazol-7-yl)amino)-3-oxopropyl)cyclohexyl)oxy)-2-methylphenyl)picolinic acid], for which, where the note is “6 h”, the “Ymin (6 h)” value is listed as “C (Ymin ≥ 70%)”. Further, the “Ymin (24 h)” value (24 h) is reported as “C (Ymin ≥ 70%)”. In addition, the DC50 is 1000 to 10000 nM (6 h, read-out: EC50 (6 h)) and under 100 nM (24 h, read-out: EC50 (24 h)).
For the molecule `Cc1c(OCCCCC2CCN(CC3CCN(c4ccc5c(C6CCC(=O)NC6=O)nn(C)c5c4)CC3)CC2)cccc1-c1ccc(N2CCc3cccc(C(=O)Nc4nc5ccccc5s4)c3C2)nc1C(=O)O` (centres unmarked) [Compound 257, 6-[8-(1,3-benzothiazol-2-ylcarbamoyl)-3,4-dihydro-1H-isoquinolin-2-yl]-3-[3-[4-[1-[[1-[3-(2,6-dioxo-3-piperidyl)-1-methyl-indazol-6-yl]-4-piperidyl]methyl]-4-piperidyl]butoxy]-2-methyl-phenyl]pyridine-2-carboxylic acid], the “Ymin (24 h)” value (24 h) is “A (Ymin < 50%)”. The DC50 (24 h, read-out: EC50 (24 h)) was under 100 nM.
For `Cc1c(OC[C@H](C)CC2CCN(CC(=O)Nc3ccc4c(C5CCC(=O)NC5=O)nn(C)c4c3)CC2)cccc1-c1ccc(N2CCc3cccc(C(=O)Nc4nc5ccccc5s4)c3C2)nc1C(=O)O` (single isomer, unassigned) [Compound 263a] the same measures were “B (50% ≤ Ymin < 70%)” and under 100 nM.
Taken in the same sequence, the figures for `Cc1c(OCCCC2CCN(CCN3CCC(c4ccc5c(C6CCC(=O)NC6=O)nn(C)c5c4)CC3)CC2)cccc1-c1ccc(N2CCc3cccc(C(=O)Nc4nc5ccccc5s4)c3C2)nc1C(=O)O` (centres unmarked) [Compound 255, 6-[8-(1,3-benzothiazol-2-ylcarbamoyl)-3,4-dihydro-1H-isoquinolin-2-yl]-3-[3-[3-[1-[2-[4-[3-(2,6-dioxo-3-piperidyl)-1-methyl-indazol-6-yl]-1-piperidyl]ethyl]-4-piperidyl]propoxy]-2-methyl-phenyl]pyridine-2-carboxylic acid] were “A (Ymin < 50%)” and under 100 nM.
Consider `Cc1c(Oc2ccc(CCCC(=O)Nc3ccc4c(C5CCC(=O)NC5=O)nn(C)c4c3)cc2)cccc1-c1ccc(N2CCc3cccc(C(=O)Nc4nc5ccccc5s4)c3C2)nc1C(=O)O` (centres unmarked) [Compound 132, 6-(8-(benzo[d]thiazol-2-ylcarbamoyl)-3,4-dihydroisoquinolin-2(1H)-yl)-3-(3-(4-(4-((3-(2,6-dioxopiperidin-3-yl)-1-methyl-1H-indazol-6-yl)amino)-4-oxobutyl)phenoxy)-2-methylphenyl)picolinic acid], for which the “Ymin (6 h)” value (6 h) is “C (Ymin ≥ 70%)”. In addition, the “Ymin (24 h)” value (24 h) is reported as “B (50% ≤ Ymin < 70%)”. The DC50 lay in the range of 1000 to 10000 nM (6 h, read-out: EC50 (6 h)) and 100 to 1000 nM (24 h, read-out: EC50 (24 h)).

Source of the values: patent publication US20240238423A9, “TETRAHYDROISOQUINOLINE HETEROBIFUNCTIONAL BCL-XL DEGRADERS” (Treeline Biosciences, Inc., priority 2022, published 2024).
